Source: patent publication US8846698B2, “Pyrrolo[2,3-d]pyrimidine tropomysin-related kinase inhibitors” (Pfizer Limited, priority 2011, dated 2014)

biological target: TRKA (Homo sapiens (Human), UniProt P04629); test: Isolated TRK enzyme assay (HTRF KinEASE-TK), TRKA; format: biochemical; details: read-out: Trka enzyme (IC50)
Sequence (P04629 441-796): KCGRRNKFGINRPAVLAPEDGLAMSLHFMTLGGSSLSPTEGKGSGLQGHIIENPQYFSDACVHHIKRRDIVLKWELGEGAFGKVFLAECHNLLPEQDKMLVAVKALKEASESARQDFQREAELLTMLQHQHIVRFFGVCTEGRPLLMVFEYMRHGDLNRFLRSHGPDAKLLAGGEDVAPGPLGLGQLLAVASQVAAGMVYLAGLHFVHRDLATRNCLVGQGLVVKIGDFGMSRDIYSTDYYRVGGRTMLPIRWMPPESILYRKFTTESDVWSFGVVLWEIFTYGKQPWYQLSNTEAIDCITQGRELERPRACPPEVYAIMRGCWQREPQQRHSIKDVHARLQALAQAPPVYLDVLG

SMILES | IC50 [nM]
CC(C(=O)N(C)C)n1cc(C(=O)c2cncc(NC(=O)Cc3ccc(Cl)cc3)c2)c2cncnc21 (racemic) [Example 230, 2-{5-[(5-{[(4-Chlorophenyl)acetyl]amino}pyridin-3-yl)carbonyl]-7H-pyrrolo[2,3-d]pyrimidin-7-yl}-N,N-dimethylpropanamide] | 63.7
CC(CO)n1cc(C(=O)c2cncc(NC(=O)Cc3ccc4cccnc4c3)c2)c2cnc(N)nc21 (single isomer, unassigned) [Example 211, N-(5-{[2-amino-7-(2-hydroxy-1-methylethyl)-7H-pyrrolo[2,3-d]pyrimidin-5-yl]carbonyl}pyridin-3-yl)-2-quinolin-7-ylacetamide] | 34.9
CC(CO)n1cc(C(=O)c2cncc(NC(=O)Cc3cccc(C(F)(F)F)c3)c2)c2cnc(N)nc21 (single isomer, unassigned) [Example 213, N-(5-{[2-amino-7-(2-hydroxy-1-methylethyl)-7H-pyrrolo[2,3-d]pyrimidin-5-yl]carbonyl}pyridin-3-yl)-2-[3-(trifluoromethyl)phenyl]acetamide] | 3.03
CC(CO)n1cc(C(=O)c2cncc(NC(=O)Cc3ccc(C#N)cc3)c2)c2cnc(N)nc21 (single isomer, unassigned) [Example 214, N-(5-{[2-amino-7-(2-hydroxy-1-methylethyl)-7H-pyrrolo[2,3-d]pyrimidin-5-yl]carbonyl}pyridin-3-yl)-2-(4-cyanophenyl)acetamide] | 65.9
CC(CO)n1cc(C(=O)c2cncc(NC(=O)Cc3cccc(C(F)(F)F)c3)c2)c2cnc(N)nc21 (single isomer, unassigned) [Example 215, N-(5-{[2-amino-7-(2-hydroxy-1-methylethyl)-7H-pyrrolo[2,3-d]pyrimidin-5-yl]carbonyl}pyridin-3-yl)-2-[3-(trifluoromethyl)phenyl]acetamide] | 4.4
CC(C)n1cc(C(=O)c2cncc(NC(=O)Cc3ccc(F)cc3)c2)c2cncnc21 [Example 65, 2-(4-fluorophenyl)-N-{5-[(7-isopropyl-7H-pyrrolo[2,3-d]pyrimidin-5-yl)carbonyl]pyridin-3-yl}acetamide] | 55.6
CC(C)n1cc(C(=O)c2cncc(NC(=O)Cc3cccc(C(F)(F)F)c3)c2)c2cncnc21 [Example 66, N-{5-[(7-isopropyl-7H-pyrrolo[2,3-d]pyrimidin-5-yl)carbonyl]pyridin-3-yl}-2-[3-(trifluoromethyl)phenyl]acetamide] | 3.55
CC(C)n1cc(C(=O)c2cncc(NC(=O)Cc3ccc(Cl)cc3)c2)c2cncnc21 [Example 69, 2-(4-chlorophenyl)-N-{5-[(7-isopropyl-7H-pyrrolo[2,3-d]pyrimidin-5-yl)carbonyl]pyridin-3-yl}acetamide] | 10.9

Continued by falling IC50, values first:

IC50 [nM] | SMILES
59 | CC(CO)n1cc(C(=O)c2cncc(NC(=O)Cc3ccc(C#N)cc3)c2)c2cnc(N)nc21 (single isomer, unassigned) [Example 212, N-(5-{[2-amino-7-(2-hydroxy-1-methylethyl)-7H-pyrrolo[2,3-d]pyrimidin-5-yl]carbonyl}pyridin-3-yl)-2-(4-cyanophenyl)acetamide]
31.6 | CC(CO)n1cc(C(=O)c2cncc(NC(=O)Cc3ccc4cccnc4c3)c2)c2cnc(N)nc21 (single isomer, unassigned) [Example 216, N-(5-{[2-amino-7-(2-hydroxy-1-methylethyl)-7H-pyrrolo[2,3-d]pyrimidin-5-yl]carbonyl}pyridin-3-yl)-2-quinolin-7-ylacetamide]
12.1 | CC(C)n1cc(C(=O)c2cncc(NC(=O)Cc3ccc(Cl)c(Cl)c3)c2)c2cncnc21 [Example 68, 2-(3,4-dichlorophenyl)-N-{5-[(7-isopropyl-7H-pyrrolo[2,3-d]pyrimidin-5-yl)carbonyl]pyridin-3-yl}acetamide]
4.15 | CC(C)n1cc(C(=O)c2cncc(NC(=O)Cc3ccc(C(F)(F)F)cc3)c2)c2cncnc21 [Example 67, N-{5-[(7-isopropyl-7H-pyrrolo[2,3-d]pyrimidin-5-yl)carbonyl]pyridin-3-yl}-2-[4-(trifluoromethyl)phenyl]acetamide]
